Test results from US6664268B1, “Crystal modification B of 8-cyano-1-cyclopropyl-7-(1S,6S-2, 8-diazabicyclo[4.3.0]nonan-8-yl)-6-fluoro-1,4-dihydro-4-oxo-3-quinolinecarboxylic acid” (Bayer Aktiengesellschaft, priority 1998, dated 2003).

What was measured:
[1] = Water absorption at 95% relative atmospheric humidity; type: physicochemical; details: relative atmospheric humidity of 95% (saturated solution of Na2HPO4×12 H2O with sediment in water), within one day
From the text: At a relative atmospheric humidity of 95% (established using a saturated solution of Na2HPO4×12 H2O with sediment in water), the solid obtained according to this procedure absorbs approximately 17% by weight of water within one day.
At a relative atmospheric humidity of 95% (established using a saturated solution of Na2HPO4×12 H2O with sediment in water), the solid obtained according to this procedure absorbs approximately 1% by weight of water within one day.

[2] = Storage stability of the crystal modification; type: physicochemical
From the text: In addition, compared with amorphous CCDC, the modification B tends to absorb less water from the atmosphere. For these reasons, it is highly suitable for preparing tablets or other solid formulations. Owing to its stability, it gives these formulations the desired long-lasting storage stability. Using the crystal modification B, it is therefore possible to prepare, in a defined and targeted manner, stable solid preparations of CCDC.

Structure (SMILES): N#Cc1c(N2C[C@@H]3CCCN[C@@H]3C2)c(F)cc2c(=O)c(C(=O)O)cn(C3CC3)c12 [Comparative Example, 8-cyano-1-cyclopropyl-7-(1 S,6S-2,8-diazabicyclo[4.3.0]nonan-8-yl)-6-fluoro-1,4-dihydro-4-oxo-3-quinolinecarboxylic acid, reference compound]
- water absorbed by the solid [1]: approximately 17 % by weight

Structure (SMILES): N#Cc1c(N2C[C@@H]3CCCN[C@@H]3C2)c(F)cc2c(=O)c(C(=O)O)cn(C3CC3)c12 [Example 1, 8-cyano-1-cyclopropyl-7-(1 S,6S-2,8-diazabicyclo[4.3.0]nonan-8-yl)-6-fluoro-1,4-dihydro-4-oxo-3-quinolinecarboxylic acid]
- stability of crystal modification on prolonged storage [2]: does not change into another crystal modification or the amorphous form
- water absorbed by the solid [1]: approximately 1 % by weight
